In patent publication US20100273167A1, “METHODS FOR DETERMINING PRENATAL ALCOHOL EXPOSURE” (priority 2009, published 2010):
Where “and” joins values, the source holds several entries; their conditions need not be identical. Equal values may be shown once. Read-outs that look alike come from different tables or passages of the source.

Experiments:
[1] = system: osteopontin; settings: 100 mM ethanol
Experimental: Total RNA was isolated from AFSC using PerfectPure RNA Cultured Cell Kit (5 Prime) in accordance with the manufacturer's protocol. Following the procedure, DNA digestion was included as recommended by the supplier to eliminate the contamination of genomic DNA. Quality of total RNA was assessed by the spectrophotometric ratio of 260/280. For the reverse-transcriptase reaction, SuperscriptII reverse transcription reagents (Invitrogen) were used. Briefly, 1 μg of RNA was converted to cDNA. PCR amplification was performed with TaqMan Universal Master Mix (Applied Biosystems). Reactions were performed in duplicate, containing 1 μl of cDNA, 1.25 μl probe, 12 μl Master Mix, 10 μl DI H20 and were analyzed in a 96-well optical reaction plate (Applied Biosystems). Reactions were amplified and quantified using an ABI 7700 sequence detectors and manufacturer's software (Applied Biosystems). On demand fluorescent probes for the following genes: β-actin and osteopontin. The threshold cycle (Ct) indicates the fractional cycle number at which the amount of amplified target reaches a defined threshold. ΔCt was obtained by subtracting the Ct values of endogenous controls (β-actin) from the Ct values of the target genes.

[2] = system: c-kit; settings: in vitro alcohol exposure of AFSC
[3] = system: alkaline phosphatase activity in AFSC; settings: 100 mM ethanol at day 8 (midpoint) of osteogenic differentiation for 48 hours
Experimental: (§1) Human AFSC were induced to differentiate into osteogenic cell types as described previously (De Coppi et al., Isolation of amniotic stem cell lines with potential for therapy. Nat Biotechnol. 2007; 25:100-106). Briefly, AFSC was cultured in DMEM low glucose with 10% FBS supplemented with 100 nM dexamethasone (Sigma-Aldrich), 10 mM beta-glycerophosphate (Sigma-Aldrich) and 0.05 mM ascorbic acid-2-phosphate (Wako Chemicals, Irving, Tex.). Cells were grown to confluency and then treated with ethanol for the first 48 hours of osteogenic differentiation to control for ethanol's antiproliferative effect. Cell number was determined after 24 and 48 hours of ethanol and bone differentiation.
Alkaline phosphatase activity was measured using p-nitrophenyl phosphate liquid substrate system (Sigma). Cells grown in 24-well plates were rinsed in PBS and incubated with 0.15% Triton X-100 for 30 mins. Two hundred uL of p-nitrophenyl phosphate solution was added to the Triton-X 100 solution. Cells were incubated in the dark for 1 hour and read spectrophotometrically at 405 nm.

[4] = over a period of 24 hours, parafilm sealed
[5] = system: Human AFSC gene expression; settings: 100 mM ethanol, 48 hours
Experimental: Microarray Analyses. Two microarray analyses were performed on AFSC sealed with parafilm for 48 hours with or without 100 mM of ethanol. Fragmented antisense cRNA was used for hybridizing to human U133 A arrays (Affymetrix, Inc. Santa Clara, Calif., USA) at the Core Genomic Facility of Wake Forest University School of Medicine.
Raw CEL files were provided by the Microarray Core Facility of the Wake Forest University School of Medicine and were then analyzed with a software package AffylmGUI (Affymetrix LIMMA, Linear Models for Microarray Data, Graphical User Interfaces) (Wettenhall et al., limmaGUI: a graphical user interface for linear modeling of microarray data. Bioinformatics. 2004; 20:3705-3706; Wettenhall et al., affylmGUI: a graphical user interface for linear modeling of single channel microarray data. Bioinformatics. 2006; 22:897-899). Within AffylmGUI, gene expression values were summarized with RMA. RMA adjusts for background noise, performs a quantile normalization, transforms the data into log base 2, and then summarizes the multiple probes into one intensity (Bolstad et al., A comparison of normalization methods for high density oligonucleotide array data based on variance and bias. Bioinformatics. 2003; 19:185-193; Irizarry et al., Exploration, normalization, and summaries of high density oligonucleotide array probe level data. Biostatistics. 2003; 4:249-264; Irizarry et al., Summaries of Affymetrix GeneChip probe level data. Nucleic Acids Res. 2003; 31:e15). Quantification of relative differences in gene expression among the groups of interest was accomplished using AffylmGUI, the sister package of limmaGUI (Wettenhall et al., limmaGUI: a graphical user interface for linear modeling of microarray data. Bioinformatics. 2004; 20:3705-3706; Wettenhall et al., affylmGUI: a graphical user interface for linear modeling of single channel microarray data. Bioinformatics. 2006; 22:897-899). AffylmGUI reads the raw Affymetrix CEL files directly, summarizes the gene expression values using RMA, and then uses LIMMA to identify statistically significant differences in gene expression (Smyth, Linear models and empirical bayes methods for assessing differential expression in microarray experiments. Stat Appl Genet Mol Biol. 2004; 3:Article3). LIMMA fits a linear model for every gene (like ANOVA or multiple regression analysis), and adjusts P values for multiple testings (Smyth, Linear models and empirical bayes methods for assessing differential expression in microarray experiments. Stat Appl Genet Mol Biol. 2004; 3:Article3). Differentially expressed genes were identified with a fold change >1.8.
To uncover enriched processes, data sets were analyzed by DAVID (Database for Annotation, Visualization and Integrated Discovery), a web-based tool that provides statistical methods for identifying over-represented biological themes and pathways within diverse and disparate gene lists (Dennis et al., DAVID: Database for Annotation, Visualization, and Integrated Discovery. Genome Biol. 2003; 4:3). DAVID also identifies over-represented biological themes in terms of their Gene Ontology (GO) terms and provides tools to visualize the distribution of genes on BioCarta and KFGG pathway maps. (Ashburner et al., Gene ontology: tool for the unification of biology. The Gene Ontology Consortium. Nat Genet. 2000; 25:25-29). GO provides consistent descriptions of genes in terms of biological processes and molecular function. Gene-enrichment analysis computes a modified Fisher exact p-value by comparing the ontological themes identified in our data set to total possible ontological processes present on the U133A chip.

[6] = system: Human AFSC; settings: 25 mM to 100 mM ethanol
Experimental: Forty-eight hours after seeding, ethanol was added to the media and parafilm sealed to prevent evaporation. Control groups were not treated with ethanol but otherwise treated identically. […] Cell number was measured using a Coulter counter. Cell viability was determined by propidium iodine (PI) exclusion. AFSC were dissociated by 0.05% trypsin/EDTA (Gibco), centrifuged at 1,500 RPM for 5 minutes, and resuspended in 1 ml of PBS in 15 ml polypropylene tubes. 50 μl of PI, a nucleotide analogue, was added to each tube and incubated for 1 hour at room temperature. Cells were centrifuged, supernatant removed, and washed twice with a wash buffer. Samples were analyzed by flow cytometry using the FL-1 channel.

[7] = system: Human AFSC; settings: 48 hours
Experimental: Human AFSC were seeded at 3,000 cells/cm^2 and maintained in culture as described previously (De Coppi et al., Isolation of amniotic stem cell lines with potential for therapy. Nat Biotechnol. 2007; 25:100-106). AFSC were grown in α-MEM medium (Gibco, Invitrogen) containing 15% ES-FBS, 1% glutamine, and 1% penicillin/streptomycin (Gibco), supplemented with 18% Chang B and 2% Chang C (Irvine Scientific) at 37° C. with 5% CO2 atmosphere. For dose-dependent studies on cell growth and viability, AFSC were treated with 25 mM, 50 mM, 75 mM, and 100 mM ethanol (Sigma-Aldrich, St. Louis, Mo.), and sealed with parafilm with media being replaced every 24 hours.
Forty-eight hours after seeding, ethanol was added to the media and parafilm sealed to prevent evaporation. Control groups were not treated with ethanol but otherwise treated identically. Proliferation rate was determined by measuring the number of AFSC after 48 hours of various ethanol concentrations. Cell number was measured using a Coulter counter. Cell viability was determined by propidium iodine (PI) exclusion. AFSC were dissociated by 0.05% trypsin/EDTA (Gibco), centrifuged at 1,500 RPM for 5 minutes, and resuspended in 1 ml of PBS in 15 ml polypropylene tubes. 50 μl of PI, […], was added to each tube and incubated for 1 hour at room temperature. Cells were centrifuged, supernatant removed, and washed twice with a wash buffer. Samples were analyzed by flow cytometry using the FL-1 channel.

[8] = system: Human AFSC
Experimental: as §1

CCO [ethanol]
increase in mRNA expression of osteopontin ([1]; 24 hours, growth media, vs control AFSC): 2.2 fold | increase in mRNA expression of osteopontin ([1]; 24 hours, osteogenic media): 2 fold | increase in mRNA expression of osteopontin ([1]; 48 hours, growth media, vs control AFSC): 2.8 fold change | effect on c-kit expression [2]: does not appear to affect c-kit expression | effect on alkaline phosphatase activity [3]: no statistically significant effect on alkaline phosphatase activity | ethanol concentration present in the culture media [4]: did not change | Basic fibroblast growth factor/FGF2 expression fold change ([5]; growth media): −2.0 fold change | number of genes down-regulated in response to ethanol ([5]; growth media): 16 genes | number of genes up-regulated in response to ethanol ([5]; growth media): 65 genes | Count of down-regulated genes: anatomical structure development ([5]; gene ontology category): 6 | Count of down-regulated genes: circulatory system process ([5]; gene ontology category): 3 | Count of down-regulated genes: embryonic development ([5]; gene ontology category): 3 | Count of down-regulated genes: glucose transport ([5]; gene ontology category): 2 | Count of down-regulated genes: multi-organism process ([5]; gene ontology category): 3 | Count of down-regulated genes: negative regulation of cellular process ([5]; gene ontology category): 6 | Count of down-regulated genes: regulation of biological quality ([5]; gene ontology category): 4 | Count of up-regulated genes: IGF receptor signaling pathway ([5]; gene ontology category): 2 | Count of up-regulated genes: biomineral & ossification ([5]; gene ontology category): 5 | Count of up-regulated genes: blood vessel morphogenesis ([5]; gene ontology category): 4 | Count of up-regulated genes: developmental process ([5]; gene ontology category): 17 | Count of up-regulated genes: organ development ([5]; gene ontology category): 12 | Count of up-regulated genes: organ morphogenesis ([5]; gene ontology category): 7 | Count of up-regulated genes: reproductive developmental process ([5]; gene ontology category): 4 | Count of up-regulated genes: skeletal development ([5]; gene ontology category): 5 | Count of up-regulated genes: system development ([5]; gene ontology category): 13 | Count of up-regulated genes: tyrosine kinase signaling pathway ([5]; gene ontology category): 4 | effect on cell viability [6]: did not have a significant effect on cell viability | reduction in proliferation rate ([7]; 25 mM ethanol, relative to cells without ethanol): 22% | reduction in the rate of proliferation ([7]; 100 mM ethanol, relative to cells without ethanol): 33% | effect on rate of proliferation ([7]; 25-100 mM ethanol): dose-dependent reduction in the rate of proliferation | calcium deposition ([8]; 100 mM ethanol during first 48 hours of osteogenic differentiation, day 23, non-exposed AFSC 77.40±26.85): 155.06 ± 75.85 µg/mL and 155.1 ± 75.8 µg/mL | effect on cell number ([8]; cells grown to confluency, 24 and 48 hours of ethanol and bone differentiation (data not shown)): no effect on cell number
